In EP4470537A1, “COMPOUND FOR USE IN TREATING FIBRODYSPLASIA OSSIFICANS PROGRESSIVA (FOP)” (Queen's University At Kingston, priority 2023, dated 2024):

Tests used:
heterotopic ossification = experiment: Surgical mouse model of heterotopic ossification (rhBMP2 collagen disk implant); type: in vivo
Experimental: Disks were impregnated with 1µg total of recombinant human BMP-2 (GenScript, Piscataway, NJ, USA, catalog #Z02913, lot #P50031712) on the day of surgery (5µl of 200ng/µL BMP-2, reconstituted in 20mM acetic acid solution). The rhBMP2-soaked collagen disk was surgically implanted into a small pocket made in the left gastrocnemius muscle of a 6-8 week-old male CD-1 mouse.
At the study endpoint (Day 14: 16-30 hours after final compound treatment) left hindlimbs were removed and submitted to micro-CT (micro-computed tomography) imaging.
CT images were acquired using a VECTor^4CT pre-clinical scanner (MILabs B.V., Utrecht, Netherlands) equipped with a cone beam X-ray CT system. Scans were carried out with an acceleration voltage of 50 kVp and an X-ray tube current of 430 µA in accurate focus mode to obtain 3600 projections over a 360° scan. […] CT images were consequently processed using MILabs reconstruction software implementing a voxel size of 20 µm and a Hann projection filter of 25 µm to generate 3-dimensional CT images. For quantification, CT images were converted to DICOM® files using PMOD 3.9 software (PMOD Technologies Ltd., Zurich, Switzerland) for rendering using RadiAnt DICOM Viewer 4.2 software (Medixant, Poznań, Poland). The region-of-interest for all hindlimbs, reconstructed from DICOM files, was defined by outlining sites of ectopic ossification. Analysis of total ectopic bone volume was conducted via automated processes using the AnalyzePro software with the Bone Microarchitecture Analysis (BMA) add-on (AnalyzeDirect, Overland Park, Kansas).

ectopic bone formation = experiment: Genetic model of FOP (pinch injury, Acvr1 cR206H/+;Pdgfra-Cre+ mice); type: in vivo, mouse; settings: for Mean ectopic bone volume D14 / percent change from vehicle (D14): day 14; for Mean ectopic bone volume D22 / percent change from vehicle (D22): day 22
Source text: Acvr1^(cR206H/+) mice were obtained from the International Fibrodysplasia Ossificans Progressiva Association (IFOPA, North Kansas City, MO, USA). These animals harbour a Cre recombinase-inducible Acvr1 transgenic allele, which causes a switch from wild-type mouse ACVR1 protein expression to that of a chimeric mouse/human protein containing the R206H mutation seen in >95% of FOP patients. These animals were intercrossed with Pdgfra-Cre expressing mice (C57BL/6-Tg(PDGFRA-cre)1Clc/J mice, available through The Jackson Laboratory, Bar Harbor, ME, USA) which activates Cre recombination in fibro-adipogenic precursors, currently believed to be the cells of origin for FOP (Lees-Shepard, J.B., et al (2018) Nat Commun 9, 471.). Resulting study animals (ACVR1^(R206H/+);Pdgfra-Cre+) are susceptible to injury-induced ectopic bone formation. These animals were subjected to a bilateral gastrocnemius pinch procedure under anaesthesia, whereby a Halsted-mosquito hemostat (product#13008-12, Fine Science Tools Inc., North Vancouver, BC, Canada) is used to compress the gastrocnemius muscle, at its widest part, to approximately 2mm for 5s, and then released. This injury elicits robust ectopic bone formation within 10-14 days (for description of procedure see, Lyu, H., et al. (2021). Biomedicines 9(6).). Animals began treatment with various doses of compound 1 (0.5 mg/kg BID, 1 mg/kg BID, 2 mg/kg BID, 4 mg/kg BID, 7.5 mg/kg BID and 10 mg/kg BID or 2 mg/kg QD and 10 mg/kg QD) or palovarotene (1.76 mg/kg QD or 0.88 mg/kg QD) or corn oil vehicle on the day following the procedure for 21 days. Micro-CT imaging was performed on day 14 (under anaesthesia) and at study termination (day 22), as outlined above in Example 7. Sites of ectopic bone formation in the area of the injury were volumetrically quantified using Class stratification in Imalytics Preclinical software (version 3.0.2.3, Gremse-IT GmbH, Aachen, Germany) from DICOM renderings. Using this model, the utility of compound 1 in inhibiting bone formation in a genetic mouse model of FOP was illustrated (see Figure 11 and Table 3 below). […]

RAR = RAR transcriptional activation assay (RARE-luc MCF-7 cells); type: cell-based; settings: 0.1 nM to 10 µM, 24 hours of treatment
Source text: This retinoid transcriptional activity assay measures the ability of a test compound to induce expression of a RA-sensitive reporter construct. This assay utilizes MCF-7 cells stably transduced with a gene construct comprising 4 tandem RA-response elements linked to a promoter driving transcriptional expression of the firefly luciferase encoding mRNA (RARE-luc). This construct serves as a sensitive reporter of retinoid-like activity.
RARE-luc transduced MCF-7 cells were maintained in a RPMI-1640 medium containing 10% FBS. Cells were grown in 96-well plates, and treated with the test compound diluted in DMSO in duplicate at 0.1 nM, 1 nM, 10 nM, 100 nM, 1 µM and 10 µM final concentrations. As a positive control for reporter activation, cells were also treated with RA diluted in DMSO at the same concentrations. DMSO treatment alone served as a negative control. After 24 hours of treatment, cells were harvested lysis buffer (Molecular Devices, San Jose, USA) and luciferase activity in cell lysates were read using a luminometer.

growth plates = experiment: Long bone growth and growth plate toxicity in juvenile FVB mice; settings: mouse, in vivo
Source text: For both palovarotene and compound 1 efficacy and toxicity were correlated to the pharmacokinetic parameters AUC (area under the curve), Cmax (maximum concentration detected following compound administration), and duration above EC50/IC50.This illustrated that efficacy was best predicted by duration above the EC50/IC50 (effective concentration for 50% response (in the case of palovarotene), or for 50% inhibition (in the case of compound 1)), whereas toxicity was best predicted by Cmax. […] For palovarotene, efficacy data from Example 7 and toxicity data from Example 8 above were compiled with mined data from the following publications: • Lindborg et al (2018). "Cartilage-derived retinoic acid-sensitive protein (CD-RAP): A stage-specific biomarker of heterotopic endochondral ossification (HEO) in fibrodysplasia ossificans progressiva (FOP)." Bone 109: 153-157. • Chakkalakal, S. A., et al. (2016). "Palovarotene Inhibits Heterotopic Ossification and Maintains Limb Mobility and Growth in Mice With the Human ACVR1(R206H) Fibrodysplasia Ossificans Progressiva (FOP) Mutation." J Bone Miner Res 31(9): 1666-1675. • Inubushi, T., et al. (2018). "Palovarotene Inhibits Osteochondroma Formation in a Mouse Model of Multiple Hereditary Exostoses." J Bone Miner Res 33(4): 658-666. • Lees-Shepard, J. B., et al. (2018). […]

Question: What does the source list for `CC1(C)CCC(C)(C)c2cc(Cn3cccn3)c(/C=C/c3ccc(C(=O)O)cc3)cc21` [palovarotene, reference compound]?
Answer: percent change in HO volume from vehicle mean (heterotopic ossification; 0.88mg/kg, 13 days, Day 14): +2.5%; Mean ectopic bone volume D14 (ectopic bone formation; 0.88mg/kg QD): 2.42 ± 3.93 mm^3; percent change from vehicle (D14) (ectopic bone formation; 0.88mg/kg QD): -78.0%; Mean ectopic bone volume D22 (ectopic bone formation; 0.88mg/kg QD): 0.75 ± 0.97 mm^3; percent change from vehicle (D22) (ectopic bone formation; 0.88mg/kg QD): -93.2%; Mean ectopic bone volume D14 (ectopic bone formation; 1.76mg/kg QD): 1.54 ± 2.48 mm^3; percent change from vehicle (D14) (ectopic bone formation; 1.76mg/kg QD): -86.1%; Mean ectopic bone volume D22 (ectopic bone formation; 1.76mg/kg QD): 0.58 ± 0.96 mm^3; percent change from vehicle (D22) (ectopic bone formation; 1.76mg/kg QD): -94.7%

Question: For `CC(C)(C)c1cccc(-c2cc3cc(/C=C/C(=O)O)ccc3[nH]2)c1` [compound 1, (E)-3-(2-(3-(tert-butyl)phenyl)-1H-indol-5-yl)acrylic acid], which luciferase activity (RAR) is on record?
Answer: did not induce luciferase activity significantly

Question: And the ectopic bone formation (heterotopic ossification; result in words, 2 to 18 mg/kg QD or BID, 14 days, micro-CT)?
Answer: dose-dependent decrease in ectopic bone formation from vehicle

Question: And the “disturbances to the growth of long bones and microarchitecture of the growth plates” value (growth plates)?
Answer: not observed

Question: And the “Mean ectopic bone volume D14” value (ectopic bone formation; 0.5mg/kg BID)?
Answer: 5.31 ± 6.65 mm^3

Question: What about the “percent change from vehicle (D14)” value (ectopic bone formation; 0.5mg/kg BID) of the same compound?
Answer: -51.9%

Question: What about the “Mean ectopic bone volume D22” value (ectopic bone formation; 0.5mg/kg BID) of the same compound?
Answer: 4.01 ± 7.71 mm^3

Question: And the “percent change from vehicle (D22)” value (ectopic bone formation; 0.5mg/kg BID)?
Answer: -63.4%

Question: What about the “Mean ectopic bone volume D14” value (ectopic bone formation; 1mg/kg BID) of the same compound?
Answer: 4.88 ± 6.79 mm^3

Question: And the “percent change from vehicle (D14)” value (ectopic bone formation; 1mg/kg BID)?
Answer: -55.8%

Question: And the “Mean ectopic bone volume D22” value (ectopic bone formation; 1mg/kg BID)?
Answer: 5.50 ± 10.67 mm^3

Question: What about the “percent change from vehicle (D22)” value (ectopic bone formation; 1mg/kg BID) of the same compound?
Answer: -49.8%

Question: What about the “Mean ectopic bone volume D14” value (ectopic bone formation; 2mg/kg BID) of the same compound?
Answer: 4.62 ± 5.80 mm^3

Question: And the “percent change from vehicle (D14)” value (ectopic bone formation; 2mg/kg BID)?
Answer: -58.1%

Question: And the “Mean ectopic bone volume D22” value (ectopic bone formation; 2mg/kg BID)?
Answer: 5.08 ± 7.90 mm^3

Question: And the “percent change from vehicle (D22)” value (ectopic bone formation; 2mg/kg BID)?
Answer: -53.6%

Question: What about the “Mean ectopic bone volume D14” value (ectopic bone formation; 2mg/kg QD) of the same compound?
Answer: 3.61 ± 4.98 mm^3

Question: What about the “percent change from vehicle (D14)” value (ectopic bone formation; 2mg/kg QD) of the same compound?
Answer: -67.3%

Question: And the “Mean ectopic bone volume D22” value (ectopic bone formation; 2mg/kg QD)?
Answer: 1.77 ± 1.73 mm^3

Question: And the “percent change from vehicle (D22)” value (ectopic bone formation; 2mg/kg QD)?
Answer: -83.8%

Question: And the “Mean ectopic bone volume D14” value (ectopic bone formation; 4mg/kg BID)?
Answer: 1.54 ± 2.85 mm^3

Question: And the “percent change from vehicle (D14)” value (ectopic bone formation; 4mg/kg BID)?
Answer: -86.1%

Question: What about the “Mean ectopic bone volume D22” value (ectopic bone formation; 4mg/kg BID) of the same compound?
Answer: 2.65 ± 6.33 mm^3

Question: What about the “percent change from vehicle (D22)” value (ectopic bone formation; 4mg/kg BID) of the same compound?
Answer: -75.8%

Question: And the “Mean ectopic bone volume D14” value (ectopic bone formation; 7.5mg/kg BID)?
Answer: 0.26 ± 0.42 mm^3

Question: What about the “percent change from vehicle (D14)” value (ectopic bone formation; 7.5mg/kg BID) of the same compound?
Answer: -97.6%

Question: What about the “Mean ectopic bone volume D22” value (ectopic bone formation; 7.5mg/kg BID) of the same compound?
Answer: 0.06 ± 0.16 mm^3

Question: And the “percent change from vehicle (D14)” value (ectopic bone formation; 10mg/kg BID)?
Answer: -88.4%

Question: What about the “percent change from vehicle (D22)” value (ectopic bone formation; 10mg/kg BID) of the same compound?
Answer: -87.2%

Question: What about the “Mean ectopic bone volume D14” value (ectopic bone formation; 10mg/kg QD) of the same compound?
Answer: 1.56 ± 3.61 mm^3

Question: And the “percent change from vehicle (D14)” value (ectopic bone formation; 10mg/kg QD)?
Answer: -85.9%

Question: What about the “Mean ectopic bone volume D22” value (ectopic bone formation; 10mg/kg QD) of the same compound?
Answer: 2.13 ± 6.10 mm^3

Question: What about the “percent change from vehicle (D22)” value (ectopic bone formation; 10mg/kg QD) of the same compound?
Answer: -80.6%

Question: And the “efficacy in inhibiting bone formation” value (ectopic bone formation; result in words, comparison with palovarotene)?
Answer: at least as efficacious as clinically relevant doses of palovarotene
